This assay addresses T1, human GalR3 receptor (Homo sapiens, UniProt O60755).
T1 construct: expressed in transfected cells; host or cells: mouse fibroblast LM(tk-) cells, stably transfected; membranes
T1 sequence (O60755 1-368): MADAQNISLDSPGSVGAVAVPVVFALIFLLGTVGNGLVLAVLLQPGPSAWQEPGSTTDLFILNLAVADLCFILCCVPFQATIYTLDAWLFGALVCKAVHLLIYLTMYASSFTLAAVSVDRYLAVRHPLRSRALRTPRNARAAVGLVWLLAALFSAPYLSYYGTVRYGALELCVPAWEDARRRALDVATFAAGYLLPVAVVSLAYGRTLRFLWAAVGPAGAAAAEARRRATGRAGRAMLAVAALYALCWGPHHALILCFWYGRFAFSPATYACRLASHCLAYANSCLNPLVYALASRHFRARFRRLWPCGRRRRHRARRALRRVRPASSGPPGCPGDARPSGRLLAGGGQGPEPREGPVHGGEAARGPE
Briefly: Radioligand binding assay at cloned human GalR3 receptor. The following applies: Binding Data; membranes from LM(tk-) cells stably transfected with the human GalR3 receptor. Here is the method: LM(tk-) cells were stably transfected with the human GalR3 receptor. cDNAs for the human and rat GalR3 receptors were transfected with a G-418 resistant gene into the mouse fibroblast LM(tk-) cell line by a calcium phosphate transfection method (Cullen, 1987). Membranes were harvested from stably transfected LM(tk-) cells. Adherent cells were washed twice in ice-cold phosphate buffered saline (138 mM NaCl, 8.1 mM Na2HPO4, 2.5 mM KCl, 1.2 mM KH2PO4, 0.9 mM CaCl2, 0.5 mM MgCl2, pH 7.4) and lysed by sonication in ice-cold sonication buffer (20 mM Tris-HCl, 5 mM EDTA, pH 7.7). Large particles and debris were cleared by low speed centrifugation (200×g, 5 min, 4° C.). Membranes were collected from the supernatant fraction by centrifugation (32,000×g, 18 min, 4° C.), washed with ice-cold hypotonic buffer, and collected again by centrifugation (32,000×g, 18 min, 4° C.). The final membrane pellet was resuspended by sonication into a small volume of ice-cold binding buffer (˜1 ml for every 5 plates: 10 mM NaCl, 20 mM HEPES, 0.22 mM KH2PO4, 1.26 mM CaCl2, 0.81 mM MgSO4, pH 7.4). Protein concentration was measured by the Bradford method (Bradford, 1976) using Bio-Rad Reagent, with bovine serum albumin as a standard. Membranes were held on ice for up to one hour and used fresh, or flash frozen and stored in liquid nitrogen. Membranes were prepared similarly from CHO cells. The methods to obtain the cDNA of the receptors, express said receptors in heterologous systems, and carry out assays to determine binding affinity are described as follows. Binding assays were performed according to the following published method: human GALR3 (PCT International Publication No. WO 02/060392).
As to `Cc1ccc(Nc2cc(N(C)C)nc(NCc3ccccc3)n2)cc1` [Example 39, N^2-BENZYL-N^4,N^4-DIMETHYL-N^6-(4-METHYLPHENYL)-2,4,6-PYRIMIDINE TRIAMINE], affinity was put at a Ki of 114 nM.

In the case of `CCNc1cc(Nc2cc(N(C)C)nc(N3CCN(Cc4ccccc4)CC3)n2)ccc1C` [Example 40, 2-(4-BENZYL-1-PIPERAZINYL)-N^4-[3-(ETHYLAMINO)-4-METHYLPHENYL]-N^6,N^6-DIMETHYL-4,6-PYRIMIDINEDIAMINE], the Ki (in general, the dissociation constant of the complex between target and ligand, obtained from inhibition or displacement) stood at 137 nM.

`CN(C)c1cc(Nc2cccc(OCc3ccccc3)c2)nc(N2CCN(c3ncccn3)CC2)n1` [Example 41, N-[3-(BENZYLOXY)PHENYL]-N^6,N^6-DIMETHYL-2-[4-(2-PYRIMIDINYL)-1-PIPERAZINYL]-4,6-PYRIMIDINEDIAMINE]: affinity was put at a Ki of 14 nM.

Compound `CN(C)c1cc(Nc2cccc(OCc3ccccc3)c2)nc(N2CCc3ccccc32)n1` [Example 42, N^4-[3-(BENZYLOXY)PHENYL]-2-(2,3-DIHYDRO-1H-INDOL-1-YL)-N^6,N^6-DIMETHYL-4,6-PYRIMIDINEDIAMINE] had a Ki of 91 nM. Against the preceding compound, the Ki is about 6.5-fold higher.

On to `Clc1ccc(Nc2cc(N3CCN(c4ccccn4)CC3)nc(N3CCN(c4ccccn4)CC3)n2)cc1Cl` [Example 43, N-(3,4-DICHLOROPHENYL)-2,6-BIS[4-(2-PYRIDINYL)-1-PIPERAZINYL]-4-PYRIMIDINAMINE], for which the Ki stood at 60 nM.

`CCN(CC)c1cc(C)ccc1Nc1cc(N(C)C)nc(N2CCN(c3ccccn3)CC2)n1` [Example 44, N^4-[2-(DIETHYLAMINO)-4-METHYLPHENYL]-N^6,N^6-DIMETHYL-2-[4-(2-PYRIDINYL)-1-PIPERAZINYL]-4,6-PYRIMIDINEDIAMINE]: the Ki worked out at 314 nM.

As to `Cc1ccc(Nc2cc(N(C)C)nc(N3CCN(c4ccccn4)CC3)n2)c(NC(C)C)c1` [Example 45, N^4-[2-(ISOPROPYLAMINO)-4-METHYLPHENYL]-N^6,N^6-DIMETHYL-2-[4-(2-PYRIDINYL)-1-PIPERAZINYL]-4,6-PYRIMIDINEDIAMINE], the Ki stood at 506 nM.

For the compound `Cc1ccc(Nc2cc(N(C)C)nc(N3CCN(c4c(C(F)(F)F)ccc[n+]4[O-])CC3)n2)cc1` [Example 46, N^4,N^4-DIMETHYL-N^6-(4-METHYLPHENYL)-2-{4-[l-OXIDO-3-(TRIFLUOROMETHYL)-2-PYRIDINYL]-1-PIPERAZINYL}-4,6-PYRIMIDINEDIAMINE], affinity was put at a Ki of 264 nM. Against the preceding compound, the Ki is about 1.9-fold lower.

`CCn1ccc2ccc(Nc3cc(N(C)C)nc(N4CCN(c5ccccn5)CC4)n3)cc21` [Example 47, N^4-(1-ETHYL-1H-INDOL-6-YL)-N^6,N^6-DIMETHYL-2-[4-(2-PYRIDINYL)-1-PIPERAZINYL]-4,6-PYRIMIDINEDIAMINE] displayed a Ki of 351 nM.

In turn, `Cc1ccc(Nc2cc(N(C)C)nc(N3C[C@@H](C)O[C@@H](C)C3)n2)cc1N(C)Cc1ccccc1` [Example 49, N^4-{3-[BENZYL(METHYL)AMINO]-4-METHYLPHENYL}-2-[CIS-2,6-DIMETHYIMORPHOLINYL]-N^6,N^6-DIMETHYL-4,6-PYRIMIDINEDIAMINE] came in with a Ki of 103 nM.

`CCC(C)Nc1cc(Nc2cc(N(C)C)nc(N3C[C@@H](C)O[C@@H](C)C3)n2)ccc1C` (stereo partly drawn) [Example 50, N^4-[3-(SEC-BUTYLAMINO)-4-METHYLPHENYL]-2-[CIS-2,6-DIMETHYL MORPHOLINYL]-N^6,N^6-DIMETHYL-4,6-PYRIMIDINEDIAMINE] returned a Ki of 312 nM. Compared with the last compound, the Ki is about 3-fold higher.

The compound `C[C@@H]1CN(c2nc(Nc3ccc(Cl)c(Cl)c3)cc(N(C)C)n2)C[C@H](C)O1` [Example 51, N^4-(3,4-DICHLOROPHENYL)-2-(CIS-2,6-DIMETHYLMORPHOLINYL)-N^6,N^6-DIMETHYL-4,6-PYRIMIDINEDIAMINE] displayed a Ki of 81 nM.

With `Cc1ccc(Nc2cc(N3CCN(c4ncccn4)CC3)nc(N3C[C@@H](C)O[C@@H](C)C3)n2)cc1` [Example 52, 2-(CIS-2,6-DIMETHYLMORPHOLINYL)-N-(4-METHYLPHENYL)-6-[4-(2-PYRIMIDINYL)-1-PIPERAZINYL]-4-PYRIMIDINAMINE], the Ki was 117 nM.

`O=C1CCN(c2cc(Nc3ccc(Cl)c(Cl)c3)nc(N3CCN(Cc4ccccc4)CC3)n2)CC1` [Example 53, 1-[2-(4-BENZYL-1-PIPERAZINYL)-6-(3,4-DICHLOROANILINO)-4-PYRIMIDINYL]-4-PIPERIDINONE] showed a Ki of 36 nM.

`CN(C)c1cc(Nc2ccc(Cl)c(Cl)c2)nc(N2CCN(c3ccc(Cl)cc3)CC2)n1` [Example 54, 2-[4-(4-CHLOROPHENYL)-1-PIPERAZINYL]-N-(3,4-DICHLOROPHENYL)-N^6,N^6-DIMETHYL-4,6-PYRIMIDINEDIAMINE] gave a Ki of 150 nM.

Source of the values: US6936607B2, “2,4,6-Triaminopyrimidines for the treatment of depression and/or anxiety” (H. Lunobeck A/S, priority 2002, dated 2005).
